Data as given in patent US20250136578A1 (Kolm Therapeutics Inc., priority 2023, published 2025).

system: VCaP cells; assay: VCaP growth inhibition assay (CTG); assay type: cell-based; details: Homo sapiens, 216 h, 30 pM R1881, 9 days
Description: VCaP cells (ATCC Cat #CRL-2876) are plated at 1×10^4 cells per well of a white plastic 96-well cluster plate (Thermo Scientific Nunc Cat #165306) in 100 uL phenol red-free DMEM (Gibco Cat #21063-029) media with 5% CSS (Omega Scientific Cat #FB-04). Cluster plates are returned to the incubator (37*C/5% CO2) for 72 hours prior to treatment. Just prior to treatment, 100 uL of phenol red-free DMEM/5% CSS and 60 pM R1881 (Sigma Cat #R0908-10 mg) was added to each well of the cluster plates (Final R1881 concentration=30 pM). Compounds (200X) were added to each well in a volume of 1 uL, with serial dilutions (1:5) from 20 uM to 2 pM (final concentrations in well are 100 nM to 10 fM). Cluster plates are returned to the incubator for 9 days.
After the 9-day treatment period, media was removed from the cluster plates by inversion and 100 uL room temperature CTG reagent (Promega Cat #G7573) is added to each well. The cluster plates are placed on a shaker and incubated at room temperature for 20 minutes. Following this shaking/incubation, cluster plates are read on a luminometer (BMG ClarioStar). IC50 values are obtained by graphing the RLU data vs. compound concentration with nonlinear regression 4-parameter logistic curves (GraphPad Prism).

For `CC(=O)N1CCc2c(c(-c3cccc4cc(-c5cnn(CC6CCN(c7ccc(C(=O)N[C@H]8CC[C@H](Oc9ccc(C#N)c(Cl)c9)CC8)nn7)CC6)c5)ncc34)nn2C)C1` [Compound 7, 6-[4-[[4-[8-(5-acetyl-1-methyl-6,7-dihydro-4H-pyrazolo[4,3-c]pyridin-3-yl)-3-isoquinolyl]pyrazol-1-yl]methyl]-1-piperidyl]-N-[4-(3-chloro-4-cyano-phenoxy)cyclohexyl]pyridazine-3-carboxamide], which IC50 is on record?
Its IC50 is no more than 0.1 nM.

Which IC50 does the source give for `CC(=O)N1CCc2c(c(Nc3ccc(-c4cnn(C)c4)cc3F)nn2C2CCN(CCC3CCN(c4ncc(C(=O)N[C@H]5CC[C@H](Oc6ccc(C#N)c(Cl)c6)CC5)cn4)CC3)CC2)C1` [Compound 10, 2-[4-[2-[4-[5-acetyl-3-[2-fluoro-4-(1-methylpyrazol-4-yl)anilino]-6,7-dihydro-4H-pyrazolo[4,3-c]pyridin-1-yl]-1-piperidyl]ethyl]-1-piperidyl]-N-[4-(3-chloro-4-cyano-phenoxy)cyclohexyl]pyrimidine-5-carboxamide] here?
The IC50 was 0.1 to 1 nM.

For `COC1(CN2CCC(n3nc(N4CCCc5cc(-c6cnn(C)c6)c(C(F)F)cc54)c4c3CCN(C(C)=O)C4)CC2)CCN(c2ccc(C(=O)N[C@H]3CC[C@H](Oc4ccc(C#N)c(Cl)c4)CC3)nn2)CC1` [Compound 177, 6-[4-[[4-[5-acetyl-3-[7-(difluoromethyl)-6-(1-methylpyrazol-4-yl)-3,4-dihydro-2H-quinolin-1-yl]-6,7-dihydro-4H-pyrazolo [4,3-c]pyridin-1-yl]-1-piperidyl]methyl]-4-methoxy-1-piperidyl]-N-[4-(3-chloro-4-cyano-phenoxy)cyclohexyl]pyridazine-3-carboxamide], which IC50 is on record?
The IC50 was no more than 0.1 nM.

For `CC(=O)N1CCc2c(c(-c3cccc4cc(-c5ccc(N6CCC7(CC6)CCN(c6ccc(C(=O)N[C@H]8CC[C@H](Oc9ccc(C#N)c(Cl)c9)CC8)nn6)CC7)nc5)ncc34)nn2C2CCOCC2)C1` [Compound 179, 6-[9-[5-[8-(5-acetyl-1-tetrahydropyran-4-yl-6,7-dihydro-4H-pyrazolo[4,3-c]pyridin-3-yl)-3-isoquinolyl]-2-pyridyl]-3,9-diazaspiro[5.5]undecan-3-yl]-N-[4-(3-chloro-4-cyano-phenoxy)cyclohexyl]pyridazine-3-carboxamide], which IC50 is on record?
The IC50 was 0.1 to 1 nM.

molecular target: AR / CBP ternary complex (Homo sapiens, UniProt P10275+Q92793); assay: Ternary complex formation assay (sandwich ELISA, AR capture, CBP antibody detection) in VCaP cell lysates; assay type: cell-based; details: treated 1.5 hours, rabbit CBP or p300 antibody detection, average, read-out: Average Ternary Complex
Sequence (P10275 whole entry): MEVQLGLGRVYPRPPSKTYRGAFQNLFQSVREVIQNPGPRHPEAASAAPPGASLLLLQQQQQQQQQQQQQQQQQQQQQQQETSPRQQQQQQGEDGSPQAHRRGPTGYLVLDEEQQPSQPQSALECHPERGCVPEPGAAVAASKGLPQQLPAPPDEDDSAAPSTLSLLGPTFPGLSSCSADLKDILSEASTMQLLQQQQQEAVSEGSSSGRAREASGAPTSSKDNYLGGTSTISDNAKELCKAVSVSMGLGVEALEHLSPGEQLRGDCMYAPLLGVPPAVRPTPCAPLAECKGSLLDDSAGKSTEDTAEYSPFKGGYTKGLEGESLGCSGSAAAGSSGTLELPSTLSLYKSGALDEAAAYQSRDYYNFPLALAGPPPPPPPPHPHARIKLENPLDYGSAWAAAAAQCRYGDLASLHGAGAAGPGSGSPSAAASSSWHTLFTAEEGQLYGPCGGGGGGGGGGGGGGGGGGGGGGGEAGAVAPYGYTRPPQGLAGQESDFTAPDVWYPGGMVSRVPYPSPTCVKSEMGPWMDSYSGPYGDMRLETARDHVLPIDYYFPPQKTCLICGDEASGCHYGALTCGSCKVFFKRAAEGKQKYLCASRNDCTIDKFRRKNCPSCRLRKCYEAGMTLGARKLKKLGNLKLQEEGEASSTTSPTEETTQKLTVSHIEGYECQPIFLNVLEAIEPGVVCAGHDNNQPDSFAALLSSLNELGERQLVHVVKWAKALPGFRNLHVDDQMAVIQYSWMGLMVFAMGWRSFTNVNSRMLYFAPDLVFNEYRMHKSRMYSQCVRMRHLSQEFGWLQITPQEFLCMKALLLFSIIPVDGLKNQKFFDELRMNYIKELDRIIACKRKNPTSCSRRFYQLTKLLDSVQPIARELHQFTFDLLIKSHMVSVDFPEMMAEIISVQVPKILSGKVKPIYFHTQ
Sequence (Q92793 2-2442): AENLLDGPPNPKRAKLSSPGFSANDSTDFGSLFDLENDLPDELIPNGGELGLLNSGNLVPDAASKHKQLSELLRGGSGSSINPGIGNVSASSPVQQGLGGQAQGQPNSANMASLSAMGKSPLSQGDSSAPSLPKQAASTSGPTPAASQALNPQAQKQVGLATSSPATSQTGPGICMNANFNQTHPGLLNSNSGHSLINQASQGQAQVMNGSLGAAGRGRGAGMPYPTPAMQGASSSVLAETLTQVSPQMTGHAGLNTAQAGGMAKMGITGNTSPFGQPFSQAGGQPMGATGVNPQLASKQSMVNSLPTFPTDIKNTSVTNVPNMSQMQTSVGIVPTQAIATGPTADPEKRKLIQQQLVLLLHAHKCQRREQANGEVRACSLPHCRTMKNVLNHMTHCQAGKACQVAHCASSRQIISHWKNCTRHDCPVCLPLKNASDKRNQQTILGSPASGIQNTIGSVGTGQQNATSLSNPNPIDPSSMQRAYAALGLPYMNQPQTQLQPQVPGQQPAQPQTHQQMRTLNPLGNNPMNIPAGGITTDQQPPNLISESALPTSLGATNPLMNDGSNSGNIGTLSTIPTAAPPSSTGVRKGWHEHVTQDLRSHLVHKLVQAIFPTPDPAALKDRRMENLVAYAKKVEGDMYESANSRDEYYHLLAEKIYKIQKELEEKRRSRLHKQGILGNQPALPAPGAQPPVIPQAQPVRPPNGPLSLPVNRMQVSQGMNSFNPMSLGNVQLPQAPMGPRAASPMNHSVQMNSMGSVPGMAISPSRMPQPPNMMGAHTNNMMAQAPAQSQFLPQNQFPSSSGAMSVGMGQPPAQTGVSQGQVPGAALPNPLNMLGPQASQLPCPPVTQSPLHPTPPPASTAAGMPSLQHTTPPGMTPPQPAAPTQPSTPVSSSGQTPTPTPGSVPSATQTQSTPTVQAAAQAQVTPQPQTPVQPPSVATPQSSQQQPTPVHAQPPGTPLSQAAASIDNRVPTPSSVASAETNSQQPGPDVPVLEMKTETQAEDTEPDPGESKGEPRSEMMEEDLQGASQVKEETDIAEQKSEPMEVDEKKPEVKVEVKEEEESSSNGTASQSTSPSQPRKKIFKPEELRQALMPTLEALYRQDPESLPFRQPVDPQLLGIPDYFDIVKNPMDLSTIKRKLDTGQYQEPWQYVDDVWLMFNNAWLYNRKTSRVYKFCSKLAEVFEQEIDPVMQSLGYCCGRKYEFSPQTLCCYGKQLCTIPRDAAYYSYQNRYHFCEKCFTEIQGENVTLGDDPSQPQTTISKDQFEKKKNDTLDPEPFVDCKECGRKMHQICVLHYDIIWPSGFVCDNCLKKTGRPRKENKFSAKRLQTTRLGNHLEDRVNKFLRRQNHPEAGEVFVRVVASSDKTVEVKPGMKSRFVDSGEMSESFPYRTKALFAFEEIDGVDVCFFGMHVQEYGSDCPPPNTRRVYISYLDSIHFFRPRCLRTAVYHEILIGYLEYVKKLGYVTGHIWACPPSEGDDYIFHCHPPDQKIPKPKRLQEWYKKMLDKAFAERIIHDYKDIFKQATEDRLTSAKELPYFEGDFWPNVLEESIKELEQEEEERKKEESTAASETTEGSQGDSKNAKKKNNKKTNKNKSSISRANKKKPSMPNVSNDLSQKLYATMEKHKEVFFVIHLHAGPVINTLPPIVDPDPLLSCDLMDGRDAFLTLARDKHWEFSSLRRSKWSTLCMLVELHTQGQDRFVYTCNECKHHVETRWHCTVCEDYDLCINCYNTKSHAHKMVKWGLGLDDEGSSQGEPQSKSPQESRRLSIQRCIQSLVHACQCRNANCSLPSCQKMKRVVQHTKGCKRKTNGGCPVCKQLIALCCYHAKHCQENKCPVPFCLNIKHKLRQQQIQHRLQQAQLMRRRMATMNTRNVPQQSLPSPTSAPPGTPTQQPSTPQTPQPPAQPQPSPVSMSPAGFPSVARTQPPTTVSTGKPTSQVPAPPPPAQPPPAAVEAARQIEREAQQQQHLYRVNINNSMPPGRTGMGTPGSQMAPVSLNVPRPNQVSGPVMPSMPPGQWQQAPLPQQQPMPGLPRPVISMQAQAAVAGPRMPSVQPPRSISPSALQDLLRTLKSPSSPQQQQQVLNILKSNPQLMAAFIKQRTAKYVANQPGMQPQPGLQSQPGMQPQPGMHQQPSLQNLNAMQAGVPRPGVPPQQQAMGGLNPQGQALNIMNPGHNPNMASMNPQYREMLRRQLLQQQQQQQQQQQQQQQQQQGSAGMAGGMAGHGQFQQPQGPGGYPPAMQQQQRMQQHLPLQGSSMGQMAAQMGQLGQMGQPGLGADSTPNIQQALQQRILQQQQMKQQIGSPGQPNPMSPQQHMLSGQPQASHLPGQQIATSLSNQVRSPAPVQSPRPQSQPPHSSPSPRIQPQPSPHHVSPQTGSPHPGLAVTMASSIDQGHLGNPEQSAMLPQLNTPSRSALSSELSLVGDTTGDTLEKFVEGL
Description: Black MaxiSorp plates: coat with 50 μL of mouse 1/50 diluted AR antibody (Monoclonal Antibody (AR 441 from Thermo Fisher); diluted in phosphate buffered saline (PBS). Spin the liquid to the bottom of the wells, if necessary. Incubate overnight at 4° C. Next day, wash 3 times with 200 μL of TBST. Block with 200 μL of blocking buffer (5% BSA in TBST) at room temperature for 2 hours (BSA: A4503 or A2153 from Sigma). Wash plates 3 times with TBST. Plates are ready for lysates Preparation of dimerizer treated lysates
Culture cells in 96 wells at 50K VCaP cells/well for at least 3 days. Plate in 5% Omega charcoal stripped FBS in total volume of 200 uL. Treat with bifunctional for 1.5 hours by adding 1 μL of 200× stock in DMSO. Aspirate media/compound. Add and pipet-to-mix 70 μL of 1× AlphaLisa Lysis Buffer to each well (Perkin Elmer, AlphaLISA SureFire Ultra, diluted in water). Pipet up and down when adding lysis buffer to disrupt cells. Let lysis proceed for 30 min at 4° C.
Incubate for 1 hour at room temperature. Flick out the lysates. Wash 3 times with TBST. Add 75 μL of rabbit CBP or p300 antibody to each well (diluted 1:5000 in blocking buffer (5% BSA in TBST). CBP antibody: (D6C5) Rabbit mAb #7389; p300 antibody: (D8Z4E) Rabbit mAb #86377. Incubate overnight at 4° C. Wash 3 times with 300 uL TBST, each time on shaker for 5-10 min. Prepare goat anti-rabbit antibody conjugated to HRP (1/100K dilution in blocking buffer) Invitrogen Catalog number: 32260. Add 75 μL of HRP-conjugated goat anti-rabbit antibody. Incubate at room temperature for 1 hour. Flick out the HRP-antibody mixture. Wash 7-8 times with TBST, each time on shaker for 10 min. Later washes try to overflow the wells so that no residual HRP remains bound to the sides of the well. Prepare and add 75 uL/well of QuantaRed Enhance Chemifluorescent HRP Substrate solution. Immediately read fluorescence on BMG ClarioStar (ex: 570/em 585), and repeat the read in 5 minutes and 15 minutes.

For `CC(=O)N1CCc2c(c(N3CCCc4cc(-c5cnn(C)c5)c(C(F)F)cc43)nn2[C@H]2CC[C@]3(CCN(c4ccc(C(=O)N[C@H]5CC[C@H](Oc6ccc(C#N)c(Cl)c6)CC5)nn4)C3)CC2)C1` [Compound 264, 6-[8-[5-acetyl-3-[7-(difluoromethyl)-6-(1-methylpyrazol-4-yl)-3,4-dihydro-2H-quinolin-1-yl]-6,7-dihydro-4H-pyrazolo[4,3-c]pyridin-1-yl]-2-azaspiro[4.5]decan-2-yl]-N-[4-(3-chloro-4-cyano-phenoxy)cyclohexyl]pyridazine-3-carboxamide], which EC50 is on record?
Its EC50 is greater than 100 nM.

`CC(=O)N1CCc2c(c(N3CCCc4cc(-c5cnn(C)c5)c(C(F)F)cc43)nn2[C@H]2CC[C@@]3(CCN(c4ccc(C(=O)N[C@H]5CC[C@H](Oc6ccc(C#N)c(Cl)c6)CC5)nn4)C3)CC2)C1` [Compound 265, 6-[8-[5-acetyl-3-[7-(difluoromethyl)-6-(1-methylpyrazol-4-yl)-3,4-dihydro-2H-quinolin-1-yl]-6,7-dihydro-4H-pyrazolo[4,3-c]pyridin-1-yl]-2-azaspiro[4.5]decan-2-yl]-N-[4-(3-chloro-4-cyano-phenoxy)cyclohexyl]pyridazine-3-carboxamide] was tested. Which EC50 did it give?
The EC50 was less than 1 nM.

For `CC(=O)N1CCc2c(c(N3CCCc4cc(-c5cnn(C)c5)c(C(F)F)cc43)nn2[C@H]2CC[C@]3(CCCN(c4ccc(C(=O)N[C@H]5CC[C@H](Oc6ccc(C#N)c(Cl)c6)CC5)nn4)C3)CC2)C1` [Compound 266], which EC50 is on record?
The EC50 was greater than 100 nM.

How did the EC50 turn out when `CC(=O)N1CCc2c(c(N3CCCc4cc(-c5cnn(C)c5)c(C(F)F)cc43)nn2[C@H]2CC[C@@]3(CCCN(C4CN(c5ccc(C(=O)N[C@H]6CC[C@H](Oc7ccc(C#N)c(Cl)c7)CC6)nn5)C4)C3)CC2)C1` [Compound 269, 6-[3-[9-[5-acetyl-3-[7-(difluoromethyl)-6-(1-methylpyrazol-4-yl)-3,4-dihydro-2H-quinolin-1-yl]-6,7-dihydro-4Hpyrazolo[4,3-c]pyridin-1-yl]-2-azaspiro[5.5]undecan-2-yl]azetidin-1-yl]-N-[4-(3-chloro-4-cyanophenoxy)cyclohexyl]pyridazine-3-carboxamide] was run?
Its EC50 is less than 1 nM.

Which EC50 does the source give for `CC(=O)N1CCc2c(c(N3CCCc4cc(-c5ccn(C)n5)c(C(F)F)cc43)nn2C2CCC3(CC2)CC(Oc2ccc(C(=O)N[C@H]4CC[C@H](Oc5ccc(C#N)c(Cl)c5)CC4)nn2)C3)C1` (stereo partly drawn) [Compound 275] here?
Its EC50 is less than 1 nM.

With `CC(=O)N1CCc2c(c(N3CCCc4cc(C#N)c(C)cc43)nn2C2CCN(C[C@H]3[C@H](C)CN(c4ccc(C(=O)N[C@H]5CC[C@H](Oc6ccc(C#N)c(Cl)c6)CC5)nn4)C[C@@H]3C)CC2)C1` [Compound 285] as the molecule, how does the EC50 read?
The EC50 was less than 1 nM.

With `CC(=O)N1CCc2c(c(N3CCCc4cc(-c5cnn(C)c5)c(C(F)F)cc43)nn2C2CCN(CC3C(C)CN(c4ccc(C(=O)N[C@H]5CC[C@H](Oc6ccc(C#N)c(C(F)(F)F)c6)CC5)nn4)CC3C)CC2)C1` (stereo partly drawn) [Compound 290, 6-[4-[[4-[5-acetyl-3-[7-(difluoromethyl)-6-(1-methylpyrazol-4-yl)-3,4-dihydro-2H-quinolin-1-yl]-6,7-dihydro-4H-pyrazolo[4,3-c]pyridin-1-yl]-1-piperidyl]methyl]-3,5-dimethyl-1-piperidyl]-N-[4-[4-cyano-3-(trifluoromethyl)phenoxy]cyclohexyl]pyridazine-3-carboxamide] as the molecule, how does the EC50 read?
Its EC50 is less than 1 nM.

Which EC50 does the source give for `CC(=O)N1CCc2c(c(N3CCCc4cc(-c5cnn(C)c5)c(C)cc43)nn2C2CCN(CC3CCN(c4ccc(C(=O)N[C@H]5CC[C@H](Oc6ccc(C#N)c(C(F)(F)F)c6)CC5)nn4)CC3(C)C)CC2)C1` (stereo partly drawn) [Compound 294] here?
Its EC50 is less than 1 nM.

Which EC50 does the source give for `CC(=O)N1CCc2c(c(N3CCCc4cc(-c5cnn(C)c5)c(C)cc43)nn2C2CCN(C3CCC4(CC3)CN(c3ccc(C(=O)N[C@H]5CC[C@H](Oc6ccc(C#N)c(Cl)c6)CC5)nn3)C4)CC2)C1` [Compound 295] here?
Its EC50 is less than 1 nM.

For `COc1cc(O[C@H]2CC[C@H](NC(=O)c3ccc(N4CC5(CCC(N6CCC(n7nc(N8CCCc9cc(-c%10cnn(C)c%10)c(C)cc98)c8c7CCN(C(C)=O)C8)CC6)CC5)C4)nn3)CC2)ccc1C#N` [Compound 296, 6-[7-[4-[5-acetyl-3-[7-methyl-6-(1-methylpyrazol-4-yl)-3,4-dihydro-2H-quinolin-1-yl]-6,7-dihydro-4H-pyrazolo[4,3-c]pyridin-1-yl]-1-piperidyl]-2-azaspiro [3.5]nonan-2-yl]-N-[4-(4-cyano-3-methoxy-phenoxy)cyclohexyl] pyridazine-3-carboxamide], which EC50 is on record?
The EC50 was less than 1 nM.

With `CC(=O)N1CCc2c(c(N3CCCc4cc(-c5cnn(C)c5)c(C)cc43)nn2C2CCN(C3CCC4(CC3)CN(c3ccc(C(=O)N[C@H]5CC[C@H](Oc6ccc(C#N)c(C(F)(F)F)c6)CC5)nn3)C4)CC2)C1` [Compound 297] as the molecule, how does the EC50 read?
Its EC50 is greater than 100 nM.
